The target in experiment [1] is T1, c-KIT V654A kinase (Homo sapiens, UniProt P10721, V654A).
T1 construct: residues T544-V976 with N-terminal GST fusion; purchased deCODE Biostructures
As to the kind of experiment: c-KIT V654A Kinase Assay. The following applies: enzymatic assay, ATP 200 µM. It counts as biochemical. The essentials:
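Construct: cKIT residues T544–V976 with N-terminal tag, GST fusion and TEV site. Reaction started by adding serially diluted compound to the enzyme mixture; NADH oxidation, coupled to kinase turnover, followed as the decrease in A340 for 6 h at 30 °C.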

Experiment [2] deals with T2, c-KIT D816H kinase (Homo sapiens, UniProt P10721, D816H).
T2 construct: The construct contains residues T544-V976 of cKit; GST (N); TEV cleavage site (internal); purchased deCODE Biostructures
As to the kind of experiment: c-KIT D816H Kinase Assay. In kind it is biochemical. The following applies: enzymatic assay, ATP 200 µM. The essentials:
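Coupled spectrophotometric assay following NADH oxidation as absorbance decrease at 340 nm, monitored continuously for 6 hours at 30 °C after adding serially diluted compound. Enzyme: mutant cKit construct with N-terminal tag, GST fusion and TEV cleavage site.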

Experiment [3] has as its target T3, c-KIT VVDV kinase (Homo sapiens, UniProt P10721, D816V/DEL559-560).
T3 construct: This construct contains residues T544-V976 of cKit; GST (N); TEV cleavage site (internal); purchased deCODE Biostructures
As to the kind of experiment: cKIT-VVDV kinase Assay. In kind it is biochemical. The conditions noted are these: enzymatic assay; V559+V560 deletions and D816V mutation. The essentials: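 Coupled spectrophotometric format: kinase activity followed as NADH oxidation, loss of absorbance at 340 nm. Serially diluted compound mixed with the reaction mixture to start; read continuously for 5 h at 30 °C.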

Experiment [4] addresses T4, Phospho-KIT (Tyr719) (Homo sapiens, UniProt P10721, DEL560-578).
T4 construct: endogenous in cells; host or cells: GIST T1
As to the kind of experiment: GIST T1 KIT Western Blot. It counts as cell-based. The following applies: GIST T1 cells, 4 hours, serum-free medium; read-out: pKIT suppression by western blot analysi GIST T1. As for the experimental part:
GIST48, GIST430, and GIST882 cells were obtained from J. Fletcher (Brigham and Women's Hospital, Boston, MA). GIST T1 cells were obtained from B. Rubin (Cleveland Clinic, Cleveland, OH) and Professor Takahiro Taguchi (Kochi Medical School, Nankoku, Kochi, Japan). […] GIST430 cells were grown in Ham's F10 medium supplemented with 15% characterized fetal bovine serum (Invitrogen, Carlsbad, CA), 30 mg/L bovine pituitary extract (BD Biosciences, San Jose, CA), 0.5% Mito+ serum extender (BD Biosciences, San Jose, CA), 1 unit/mL penicillin G, 1 µg/ml streptomycin, and 0.29 mg/mL L-glutamine at 37 °C, 5%CO2, 95% humidity. GIST T1 cells were grown in DMEM medium supplemented with 10% characterized fetal bovine serum (Invitrogen, Carlsbad, CA), 1 unit/mL penicillin G, 1 µg/ml streptomycin, and 0.29 mg/mL L-glutamine at 37 °C, 5% CO2, and 95% humidity. Cells were allowed to expand until reaching 70-95% confluence at which point they were subcultured or harvested for assay use.
One hundred twenty-five thousand cells were added per well in a 24-well tissue-culture treated plate. Cells were then incubated overnight at 37°C, 5% CO2, 95% humidity. Medium was aspirated, cells were washed with PBS, and serum-free DMEM medium was added. A serial dilution of test compound was added to plates containing cells and plates were incubated for 4 hours at 37°C, 5% CO2, 95% humidity. Cells were washed with PBS, then lysed. Cell lysates were separated by SDS-PAGE and transferred to PVDF. Phospho-KIT (Tyr719) was detected using an antibody from Cell Signaling Technology (Beverly, MA), ECL Plus detection reagent (GE Healthcare, Piscataway, NJ) and a Molecular Devices Storm 840 phosphorimager in fluorescence mode. Blots were stripped and probed for total KIT using an antibody from Santa Cruz Biotech (Santa Cruz, CA). IC50 values were calculated using Prism software (Graphpad, San Diego, CA).
On the technique in general: In western blotting, separated proteins are transferred to a membrane and probed.

Experiment [5] has as its system GIST T1 cells. As to the kind of experiment: GIST T1 Cell Proliferation Assay. The conditions noted are these: Homo sapiens, GISTT1, 72 h, 68 hours + 4 hours resazurin. It counts as cell-based. On the technique in general: The colour change of resazurin is a common sign of viable cells or microbes.

T3 sequence (P10721 with tags, fused parts or gaps DEL559-560/D816V): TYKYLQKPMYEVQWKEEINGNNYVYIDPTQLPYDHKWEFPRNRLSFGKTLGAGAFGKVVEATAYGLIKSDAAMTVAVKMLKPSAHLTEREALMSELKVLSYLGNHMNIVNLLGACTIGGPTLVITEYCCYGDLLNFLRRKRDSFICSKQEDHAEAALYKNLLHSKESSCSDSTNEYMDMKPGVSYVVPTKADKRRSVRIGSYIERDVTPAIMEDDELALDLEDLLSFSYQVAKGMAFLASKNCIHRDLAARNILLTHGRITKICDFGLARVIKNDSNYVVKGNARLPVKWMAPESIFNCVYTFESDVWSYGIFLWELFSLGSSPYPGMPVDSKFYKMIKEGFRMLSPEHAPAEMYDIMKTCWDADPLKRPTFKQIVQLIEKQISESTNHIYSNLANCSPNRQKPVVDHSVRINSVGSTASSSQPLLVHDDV
T1 sequence (P10721 544-976 V654A): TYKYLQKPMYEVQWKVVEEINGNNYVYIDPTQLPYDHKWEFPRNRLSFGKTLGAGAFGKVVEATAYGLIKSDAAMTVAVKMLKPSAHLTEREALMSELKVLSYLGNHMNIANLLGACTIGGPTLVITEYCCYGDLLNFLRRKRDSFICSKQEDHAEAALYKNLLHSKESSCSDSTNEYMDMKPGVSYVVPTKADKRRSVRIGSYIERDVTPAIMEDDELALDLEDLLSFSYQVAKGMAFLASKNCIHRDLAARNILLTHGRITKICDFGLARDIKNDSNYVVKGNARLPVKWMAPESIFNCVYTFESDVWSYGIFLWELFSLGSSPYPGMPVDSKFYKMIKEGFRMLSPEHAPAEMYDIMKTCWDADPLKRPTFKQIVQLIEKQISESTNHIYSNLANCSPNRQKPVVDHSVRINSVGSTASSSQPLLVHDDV
T2 sequence (P10721 544-976 D816H): as the sequence (P10721 544-976 V654A) above, with A111V, D273H counted along it
T4 sequence (P10721 with tags, fused parts or gaps DEL560-578): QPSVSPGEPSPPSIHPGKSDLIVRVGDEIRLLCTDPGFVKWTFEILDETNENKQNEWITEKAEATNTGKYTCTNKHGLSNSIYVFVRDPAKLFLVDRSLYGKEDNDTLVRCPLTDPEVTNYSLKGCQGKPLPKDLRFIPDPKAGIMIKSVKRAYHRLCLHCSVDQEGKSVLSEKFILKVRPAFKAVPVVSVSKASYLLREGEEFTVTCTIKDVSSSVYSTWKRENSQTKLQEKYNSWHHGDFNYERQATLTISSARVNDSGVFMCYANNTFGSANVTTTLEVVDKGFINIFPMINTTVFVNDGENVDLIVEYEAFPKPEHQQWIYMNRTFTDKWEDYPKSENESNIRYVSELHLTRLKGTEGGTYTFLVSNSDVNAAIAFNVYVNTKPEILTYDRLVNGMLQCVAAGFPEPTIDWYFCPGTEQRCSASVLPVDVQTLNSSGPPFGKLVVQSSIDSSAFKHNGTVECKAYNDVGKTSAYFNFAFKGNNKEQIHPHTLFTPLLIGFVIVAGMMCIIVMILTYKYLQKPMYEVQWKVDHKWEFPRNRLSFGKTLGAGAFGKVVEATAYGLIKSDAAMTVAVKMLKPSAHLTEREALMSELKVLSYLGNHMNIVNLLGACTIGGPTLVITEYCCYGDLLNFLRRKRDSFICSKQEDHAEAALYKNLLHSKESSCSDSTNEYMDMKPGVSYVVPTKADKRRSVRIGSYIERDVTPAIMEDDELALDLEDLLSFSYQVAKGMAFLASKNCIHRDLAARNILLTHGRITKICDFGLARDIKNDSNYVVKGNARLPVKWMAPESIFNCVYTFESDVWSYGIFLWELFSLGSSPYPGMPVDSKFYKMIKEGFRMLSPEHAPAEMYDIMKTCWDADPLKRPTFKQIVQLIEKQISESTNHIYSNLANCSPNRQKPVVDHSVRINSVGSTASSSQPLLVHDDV

On to `CCn1c(=O)c(-c2cc(NC(=O)Nc3ccccc3)c(F)cc2Cl)cc2cnc(NC)cc21` [Example 3, 1-(4-chloro-5-(1-ethyl-7-(methylamino)-2-oxo-1,2-dihydro-1,6-naphthyridin-3-yl)-2-fluorophenyl)-3-phenylurea], for which the IC50 in experiment [1], in experiment [2], in experiment [3], in experiment [4] and in experiment [5] was < 10 nM each time.

Turning to `CCn1c(=O)c(-c2cc(NC(=O)Nc3cccc4ccccc34)c(F)cc2Cl)cc2cnc(NC)cc21` [Example 6, 1-(4-chloro-5-(1-ethyl-7-(methylamino)-2-oxo-1,2-dihydro-1,6-naphthyridin-3-yl)-2-fluorophenyl)-3-(naphthalen-1-yl)urea], the IC50 was 10 to 100 nM in experiment [1]; 10 to 100 nM in experiment [2]; < 10 nM in experiment [3]; 10 to 100 nM in experiment [4]; 10 to 100 nM in experiment [5].

For the molecule `CNc1cc2c(cn1)cc(-c1cc(NC(=O)Nc3ccccc3)c(F)cc1Cl)c(=O)n2C(C)C` [Example 22, 1-(4-chloro-2-fluoro-5-(1-isopropyl-7-(methylamino)-2-oxo-1,2-dihydro-1,6-naphthyridin-3-yl)phenyl)-3-phenylurea], the IC50 in experiment [1] is 10 to 100 nM; in experiment [2], 10 to 100 nM; in experiment [3] it was < 10 nM; in experiment [4], < 10 nM; in experiment [5], < 10 nM.

In the case of `CCn1c(=O)c(-c2cc(NC(=O)Nc3ccccc3)c(F)cc2C)cc2cnc(NC)cc21` [Example 23, 1-(5-(1-ethyl-7-(methylamino)-2-oxo-1,2-dihydro-1,6-naphthyridin-3-yl)-2-fluoro-4-methylphenyl)-3-phenylurea], the IC50 in experiment [1] is < 10 nM; in experiment [2], 10 to 100 nM; in experiment [3], 10 to 100 nM; in experiment [4] it was < 10 nM; in experiment [5] it was < 10 nM.

Take `CCn1c(=O)c(-c2cc(NC(=O)Nc3cccc(F)c3)c(F)cc2Cl)cc2cnc(NC)cc21` [Example 24, 1-[4-chloro-5-(1-ethyl-7-methylamino-2-oxo-1,2-dihydro-[1,6]naphthyridin-3-yl)-2-fluoro-phenyl]-3-(3-fluoro-phenyl)-urea]: the IC50 in experiment [1], in experiment [2], in experiment [3], in experiment [4] and in experiment [5] was < 10 nM throughout.

In the case of `CCn1c(=O)c(-c2cc(NC(=O)Nc3cccc(F)c3)c(F)cc2Cl)cc2cnc(NCCOC)cc21` [Example 28, 1-(4-chloro-5-(1-ethyl-7-(2-methoxyethylamino)-2-oxo-1,2-dihydro-1,6-naphthyridin-3-yl)-2-fluorophenyl)-3-(3-fluorophenyl)urea], the IC50 in experiment [1] is < 10 nM; in experiment [2], 10 to 100 nM; in experiment [3], 10 to 100 nM; in experiment [4], < 10 nM; in experiment [5] it was 10 to 100 nM.

Regarding `CCn1c(=O)c(-c2cc(NC(=O)Nc3csc4ccccc34)c(F)cc2Cl)cc2cnc(NC)cc21` [Example 32, 1-(benzo[b]thiophen-3-yl)-3-(4-chloro-5-(1-ethyl-7-(methylamino)-2-oxo-1,2-dihydro-1,6-naphthyridin-3-yl)-2-fluorophenyl)urea], the IC50 in experiment [1] was 10 to 100 nM; in experiment [2], < 10 nM; in experiment [3] it was < 10 nM; in experiment [4] it was < 10 nM; in experiment [5] it was < 10 nM.

With `CCn1c(=O)c(-c2cc(NC(=O)Nc3cccc(F)c3)c(F)cc2C)cc2cnc(NC)cc21` [Example 44, 1-(5-(1-ethyl-7-(methylamino)-2-oxo-1,2-dihydro-1,6-naphthyridin-3-yl)-2-fluoro-4-methylphenyl)-3-(3-fluorophenyl)urea], the IC50 was 10 to 100 nM in experiment [1]; < 10 nM in experiment [2]; 10 to 100 nM in experiment [3]; < 10 nM in experiment [4]; < 10 nM in experiment [5].

The values are drawn from patent EP3722296B1, “DIHYDRONAPHTHYRIDINES AND RELATED COMPOUNDS USEFUL AS KINASE INHIBITORS FOR THE TREATMENT OF PROLIFERATIVE DISEASES” (Deciphera Pharmaceuticals, LLC, priority 2012, dated 2013).
